According to patent US20160083357A1, “NOVEL TETRAZOLONE DERIVATIVES” (Hoffmann-La Roche Inc., priority 2013, published 2016):
Like-named read-outs stand apart in the source and are kept apart here.

How the values were obtained:
human CB2 receptors = target: T1, human CB2 receptors (Homo sapiens, UniProt P34972); assay: cAMP assay, human CB2; format: cell-based
T1 construct: expressed in transfected cells; host or cells: CHO cells
Summary of the method: (§1)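 CHO cells expressing human CB1 or CB2, preincubated in Krebs Ringer bicarbonate with 1 mM IBMX, then compound for 30 min at 30° C. cAMP quantified by time-resolved FRET (cAMP-Nano-TRF) against a cAMP standard curve; EC50 values derived.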

human CB1 receptors = target: T2, human CB1 receptors (Homo sapiens, UniProt P21554); assay: cAMP assay, human CB1; format: cell-based
T2 construct: expressed in transfected cells; host or cells: CHO cells
Summary of the method: as §1

[1] = functional cAMP assay, CHO cells expressing human CB2, read-out: Ec50: CB2 - hu cAMP
[2] = functional cAMP assay, CHO cells expressing human CB1, read-out: Ec50: CB1 - hu cAMP

T2 sequence (P21554 whole entry): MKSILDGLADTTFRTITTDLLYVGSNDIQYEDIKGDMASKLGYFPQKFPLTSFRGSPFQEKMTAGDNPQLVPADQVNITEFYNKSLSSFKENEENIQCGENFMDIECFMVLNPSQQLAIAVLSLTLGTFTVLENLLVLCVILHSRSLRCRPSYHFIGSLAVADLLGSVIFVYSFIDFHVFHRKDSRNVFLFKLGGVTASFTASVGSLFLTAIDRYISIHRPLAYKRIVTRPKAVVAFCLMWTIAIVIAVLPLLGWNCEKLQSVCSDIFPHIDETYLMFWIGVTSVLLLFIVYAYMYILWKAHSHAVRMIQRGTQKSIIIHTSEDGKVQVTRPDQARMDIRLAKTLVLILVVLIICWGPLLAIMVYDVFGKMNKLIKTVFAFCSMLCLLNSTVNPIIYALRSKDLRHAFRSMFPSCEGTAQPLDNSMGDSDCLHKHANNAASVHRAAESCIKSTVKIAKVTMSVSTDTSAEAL
T1 sequence (P34972 whole entry): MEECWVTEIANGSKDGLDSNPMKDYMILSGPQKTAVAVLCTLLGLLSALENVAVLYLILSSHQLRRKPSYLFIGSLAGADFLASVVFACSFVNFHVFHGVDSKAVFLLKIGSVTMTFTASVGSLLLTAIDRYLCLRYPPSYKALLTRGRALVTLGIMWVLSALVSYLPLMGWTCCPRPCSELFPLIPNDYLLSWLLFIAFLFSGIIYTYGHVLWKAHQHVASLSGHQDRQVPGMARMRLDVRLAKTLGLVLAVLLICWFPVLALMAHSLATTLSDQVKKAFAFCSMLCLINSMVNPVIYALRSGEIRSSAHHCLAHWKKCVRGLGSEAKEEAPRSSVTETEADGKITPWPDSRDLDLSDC

SMILES	EC50 (human CB2 receptors; [1]) [nM]	EC50 (human CB1 receptors; [2]) [nM]	EC50 (human CB2 receptors) [nM]	EC50 (human CB1 receptors) [nM]
O=C(N1CCOCC1)n1nnn(-c2cccc(C(F)(F)F)c2)c1=O [Example 120, 1-(morpholine-4-carbonyl)-4-[3-(trifluoromethyl)phenyl]tetrazol-5-one]	9.2	> 10000	–	–
O=C(N1CCOCC1)n1nnn(-c2ccc(C(F)(F)F)cc2)c1=O [Example 121, 1-(morpholine-4-carbonyl)-4-[4-(trifluoromethyl)phenyl]tetrazol-5-one]	16	> 10000	–	–
O=C(N1CCOCC1)n1nnn(-c2c(F)cccc2F)c1=O [Example 122, 1-(2,6-difluorophenyl)-4-(morpholine-4-carbonyl)tetrazol-5-one]	–	–	19	> 10000
O=C(N1CCOCC1)n1nnn(-c2ccc(F)cc2F)c1=O [Example 123, 1-(2,4-difluorophenyl)-4-(morpholine-4-carbonyl)tetrazol-5-one]	12	> 10000	–	–
O=C(N1CCOCC1)n1nnn(-c2cc(F)ccc2F)c1=O [Example 124, 1-(2,5-difluorophenyl)-4-(morpholine-4-carbonyl)tetrazol-5-one]	19	> 10000	–	–
O=C(N1CCOCC1)n1nnn(-c2ccc(F)c(F)c2)c1=O [Example 125, 1-(3,4-difluorophenyl)-4-(morpholine-4-carbonyl)tetrazol-5-one]	7	> 10000	–	–
O=C(N1CCOCC1)n1nnn(-c2cc(F)cc(F)c2)c1=O [Example 126, 1-(3,5-difluorophenyl)-4-(morpholine-4-carbonyl)tetrazol-5-one]	13	> 10000	–	–
Cc1cccc(-n2nnn(C(=O)N3CCOCC3)c2=O)c1 [Example 127, 1-(3-methylphenyl)-4-(morpholine-4-carbonyl)tetrazol-5-one]	8.4	> 10000	–	–
Cc1ccc(-n2nnn(C(=O)N3CCOCC3)c2=O)cc1 [Example 128, 1-(4-methylphenyl)-4-(morpholine-4-carbonyl)tetrazol-5-one]	6.6	> 10000	–	–
COc1cccc(-n2nnn(C(=O)N3CCOCC3)c2=O)c1 [Example 129, 1-(3-methoxyphenyl)-4-(morpholine-4-carbonyl)tetrazol-5-one]	9.1	> 10000	–	–
COc1ccc(-n2nnn(C(=O)N3CCOCC3)c2=O)cc1 [Example 130, 1-(4-methoxyphenyl)-4-(morpholine-4-carbonyl)tetrazol-5-one]	6.7	> 10000	–	–
O=C(N1CCOCC1)n1nnn(-c2cccc(Cl)c2Cl)c1=O [Example 131, 1-(2,3-dichlorophenyl)-4-(morpholine-4-carbonyl)tetrazol-5-one]	16	> 10000	–	–
Cn1ccc2c(-n3nnn(C(=O)N4CCOCC4)c3=O)cccc21 [Example 132, 1-(1-methylindol-4-yl)-4-(morpholine-4-carbonyl)tetrazol-5-one]	7.6	> 10000	–	–
Cn1ccc2cc(-n3nnn(C(=O)N4CCOCC4)c3=O)ccc21 [Example 133, 1-(1-methylindol-5-yl)-4-(morpholine-4-carbonyl)tetrazol-5-one]	18	> 10000	–	–
Cn1ccc2ccc(-n3nnn(C(=O)N4CCOCC4)c3=O)cc21 [Example 134, 1-(1-methylindol-6-yl)-4-(morpholine-4-carbonyl)tetrazol-5-one]	8	> 10000	–	–
O=C(N1CCOCC1)n1nnn(-c2cccc(Br)c2)c1=O [Example 135, 1-(3-bromophenyl)-4-(morpholine-4-carbonyl)tetrazol-5-one]	7	> 10000	–	–
C[C@@H]1CN(C(=O)n2nnn(-c3cccc(Cl)c3)c2=O)C[C@H](C)O1 [Example 136, 1-(3-chlorophenyl)-4-[(2R,6S)-2,6-dimethylmorpholine-4-carbonyl]tetrazol-5-one]	507	> 10000	–	–
CC1CN(C(=O)n2nnn(-c3cccc(Cl)c3)c2=O)CC(C)O1 (centres unmarked) [Example 137, 1-(3-chlorophenyl)-4-(2,6-dimethylmorpholine-4-carbonyl)tetrazol-5-one]	130	> 10000	–	–
CC1(C)CCN(C(=O)n2nnn(-c3cccc(Cl)c3)c2=O)C1 [Example 138, 1-(3-chlorophenyl)-4-(3,3-dimethylpyrrolidine-1-carbonyl)tetrazol-5-one]	5	> 10000	–	–
